Test results published in PMC10819767, “An ADAM10 Exosite Inhibitor Is Efficacious in an In Vivo Collagen-Induced Arthritis Model” (Pharmaceuticals, 2024).
pIC50: −log10 of the molar value. “Also recorded” adds a separate entry of the source.

What was measured:
[1] = biological target: T1, ADAM17 (Homo sapiens, UniProt P78536); test: ADAM17 enzyme assay with glycosylated substrate DM2; type: biochemical
T1 construct: purchased R & D Systems (Minneapolis, MN, USA)
Protocol: ADAM10 and ADAM17 assays. Both assays were performed as published previously by us. Briefly, both assays followed the same general protocol. In total, 5 μL of the 2× enzyme solution (20 nM) in an assay buffer (10 mM Hepes, 0.001% Brij-35, pH 7.5) were added to solid bottom black 384 plates (Nunc, ThermoFisher, Waltham, MA, USA, cat# 264705). Next, test compounds and pharmacological controls were added to the corresponding wells using a 384-pin tool device (V & P Scientific, San Diego, CA, USA). After 60 min of incubation at RT, the reactions were started via the addition of 5 μL of the 2× solutions of glycosylated substrate DM2 (20 μM). The reactions were incubated at RT for 2 h, after which the fluorescence was measured using a Biotek H1 multimode microplate imager (λexcitation = 360 nm, λemission = 460 nm). IC50 values were calculated by fitting normalized data to the sigmoidal log vs. the response equation utilizing a non-linear regression analysis from GraphPad Prizm 9.

[2] = test system: TNFα; test: RA serum marker ELISA, TNFα, CIA mice; type: in vivo, C57 BL/6 mice
Protocol: (§1) The sample size for therapeutic evaluation was calculated using power analysis based on experimental data from similar studies. In a two-sided test and setting the α value at 0.05 and desired power at 0.95, the sample size turned out to be 5 per group. We also expected deaths during the experiments; therefore, we used the formula Nt = N/1-q, where Nt is the number of mice initially used, N is the number required at the end of the study, and q is the proportion of attrition, which is generally 10%. Thus, at the end of the study period, we expected to have data from at least 6 mice per group, which is enough to attain statistical significance if it exists. Data were analyzed using a one-way ANOVA followed by Dunnett’s test compared with the vehicle control. At the end of the study, the mice were anesthetized and sacrificed using CO2 euthanasia. The hind paws of the mice were subjected to a histopathological examination, and the serum was analyzed for CRP, TNF-α, IL-6, and IL-10, as described in the below sections.
RA serum marker analysis. Blood was collected from the tail vein, and 100 µL was used for the assays. All assays were conducted using the manufacturer’s instructions for the respective assay kits. The following assay kits were purchased: Mouse TNF-α GENLISA™ ELISA (Krishgen BioSystems cat#KB2145, Mumbai, India), Mouse IL-10 GENLISA™ ELISA (Krishgen BioSystems cat#KB2072), Mouse hsC-Reactive Protein, hs-CRP GENLISA™ ELISA (Krishgen BioSystems cat#KLM0318), Mouse IL-6 GENLISA™ ELISA (Krishgen BioSystems cat#KB2068).

[3] = test system: articular joints affected by RA; test: Histopathology (H & E) of arthritic joint, CIA mice; type: in vivo, C57 BL/6 mice
Protocol: as §1, with “sections. Histology. Limbs from euthanized animals were preserved in buffered formalin, decalcified, embedded, sectioned, and stained with hematoxylin and eosin (H & E). Microscopic images were acquired using the Lx 400 microscope (Labomed, Fremont, CA, USA).” for “sections.”

[4] = biological target: DNA polymerase β; parameters: method as in PubChem AID 485314; details: ref PubChem AID 485314; cited from earlier work
[5] = test system: adrenergic (ADRB2); parameters: method as in PMID 34817776; details: cited from earlier work
[6] = test system: OPRK1; parameters: method as in PMID 34817776; details: cited from earlier work
[7] = test system: PBMCs and neutrophils; parameters: method as in PMID 28442704; details: cited from earlier work

T1 sequence (P78536 215-824, species assumed): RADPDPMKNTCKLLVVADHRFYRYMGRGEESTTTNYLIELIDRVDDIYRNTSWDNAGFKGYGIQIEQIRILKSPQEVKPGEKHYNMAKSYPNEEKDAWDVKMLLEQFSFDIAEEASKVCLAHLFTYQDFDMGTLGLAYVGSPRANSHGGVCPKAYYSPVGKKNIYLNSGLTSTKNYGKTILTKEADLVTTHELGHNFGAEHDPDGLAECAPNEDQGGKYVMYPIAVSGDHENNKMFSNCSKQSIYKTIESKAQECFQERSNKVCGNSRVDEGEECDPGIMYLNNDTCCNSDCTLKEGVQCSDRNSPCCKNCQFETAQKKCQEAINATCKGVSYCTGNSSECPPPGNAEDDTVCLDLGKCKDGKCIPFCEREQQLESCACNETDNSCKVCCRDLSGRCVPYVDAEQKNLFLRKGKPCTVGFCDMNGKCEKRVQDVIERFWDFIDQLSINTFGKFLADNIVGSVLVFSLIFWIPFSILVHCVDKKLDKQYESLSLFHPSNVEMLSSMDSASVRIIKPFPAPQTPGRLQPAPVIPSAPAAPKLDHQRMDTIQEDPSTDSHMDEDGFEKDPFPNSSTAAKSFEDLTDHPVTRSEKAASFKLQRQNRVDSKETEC

COc1cccc(C(=O)NNC(=O)C(=O)Nc2ccc(C)c(Cl)c2)c1 [CID 3117694]
pIC50 [1]: < 4.00 | TNFα blood level vs healthy control ([2]; CID 3117694 50 mg/kg/day, indomethacin 2.5 mg/kg): decreased the markers to the level of the healthy control | concentration of TNFα in the blood of arthritic mice ([2]; all tested doses (10, 30, 50 mg/kg), vs vehicle control): lowers | histopathological findings (in words) ([3]; 10 mg/kg/day): did not have a pronounced effect on RA markers | histopathological findings (in words) ([3]; 30 mg/kg/day): reduced erosion but not the rest of the symptoms | histopathological findings (in words) ([3]; 50 mg/kg/day): significant reduction in RA hallmarks in most samples; also recorded: healthy bone and cartilage similar to the healthy controls | pIC50 [4]: 4.10 | activity against ADRB2 [5]: inactive | activity against OPRK1 [6]: inactive | recruitment of PBMCs and neutrophils [7]: can inhibit
